Results reported in patent US20150160193A1, “TUMOR CELL ISOLATION/PURIFICATION PROCESS AND METHODS FOR USE THEREOF” (DIATECH ONCOLOGY, priority 2012, published 2015).
Where two headings read alike, the source gives them in different places. *1 amine or outer side, *2 acyl side, *3 side chain or, on linkers, in order; H or OH if unused. Where a SMILES comes first, the peptide text is derived from it. Bridges are numbered along the chain shown (N, C = ends). Roman numbers before positions name the chains, in order. [ ]: non-standard residue; d: D form. Actinocin(9to1) = Cc1c2oc3c(C)ccc(C(=O)[*:1])c3nc-2c(C(=O)[*:2])c(N)c1=O; NMeV = CN[C@H](C(=O)O)C(C)C; Sar = CNCC(=O)O

Experiments:
[1] = test system: neoplastic cells collected from spleen and abdominal tumor biopsy specimens; assay: MiCK assay, patient specific cancer cell testing (Example 10); assay type: cell-based, human; conditions: for efficacy for this patient, in words: single agents
Method: The experiments were conducted on neoplastic cells collected from spleen and abdominal tumor biopsy specimens from a person. The tumor specimens were of an unknown primary. The experiment consisted of using a MiCK assay, according to the present disclosure, to test the effectiveness of 37 potential anti-cancer drugs, combinations of these drugs, and various concentrations of these drugs.
Apoptotic readings greater than 5.0KU in the MiCK assay are considered to be highly sensitive and are associated with a good clinical response. […] It should be noted that the alkylating agents cyclophosphamide and ifosfamide require hepatic metabolic transformation to their active metabolite, 4HC and 4HI respectively, and therefore cannot be tested directly in vitro. For the MiCK assay their active metabolites, 4HC and 4HI respectively were used.

[2] = test system: Purified breast cancer cells from 67 patient (Pt) biopsies; assay: MiCK assay of drug-induced apoptosis, breast cancer specimens; assay type: cell-based, human; conditions: for % >1: share of samples with KU >1; for % >3: share of samples with KU >3; for Mean Difference (95% CI) of KU vs Carbo: drug minus Carbo; for Mean Difference (95% CI) of KU vs Mitox: drug minus Mitox; for Mean Difference (95% CI) of KU vs Doxo: paired t-test, drug minus Doxo
Method: Apoptosis(KU)=(VmaxDrug Candidate Treated−VmaxControl)×60×X/(ODcontrol−ODblank)
Within 24 to 48 hours of collection, the specimen was minced, digested with 0.25% trypsin and 0.08% DNase for 1-2 hours at 37 C.°, and then filtered through a 100 micrometer cell strainer. When necessary, non-viable cells were removed by density gradient centrifugation. The cell suspension was then incubated for 30 min at 37° C. in a tissue culture flask to remove macrophages by adherence. For epithelial tumors lymphocytes were removed by 30 minute incubation with CD2 antibody conjugated magnetic beads for T lymphocytes and CD19 antibody conjugated magnetic beads for B lymphocytes. Remaining macrophages were removed, if necessary, using CD14 antibody conjugated magnetic beads. The final cell suspension was plated into a 96-well half-area plate, 120 microliter aliquot per well. The plate was incubated overnight at 37° C. with 5% carbon dioxide humidified atmosphere. 5×10^4 to 1.5×10^5 cells were seeded per well depending on the cell volume to give adequate well-bottom coverage.
Within 24 to 48 hours of collection, the specimen was treated as follows in order to purify and isolate cells from solid tumors: • Take the specimen out of the transport tube. • Put in a petri dish in 13 ml of PBS+high concentration of antibiotics (200 units/ml Penicillin+200 μg/ml streptomycin) and take measurements and picture of the specimen. […] In that case, one may make the determination to do a “pre-filtration” using sterile gauze over a 50 ml tube. Then proceed with the cell strainer filtration process referenced above. • Centrifuge the filtered cell suspension 1500 RPM 5 min • Discard the supernatant. To the pellet, add 5 ml of red blood cell lysis solution (standard NH4Cl containing lysis solution: Nh4Cl0.15M+KHCO3 10 mM+EDTA-4Na 0.1 mM, pH 7.2), incubate 2-3 min and add 5 ml of RPMI 10% FBS. • Centrifuge 5 min 1500 RPM. Resuspend the pellet in RPMI 10% FBS (1-10 ml depending on the pellet size). • Collect the second fraction in the enzyme and repeat the steps above. • Check the viability of all fractions and pool. Do a cytospin stain with Wright Giemsa to verify the cell content of the population. NOTE: this is done numerous times during the process of purification. • 3) When necessary, non-viable cells were removed by density gradient centrifugation. • Density gradient centrifugation (optiprep): first layer=2 ml cells+4.45 ml optiprep 40% in RPMI, second layer=optiprep 22.5% in RPMI, 3rd layer=0.5 ml of RPMI. Centrifuge at 2000 RPM for 20 min • Collect the viable cell layer, add 10 ml of RPMI 10% FBS, centrifuge at 1500 RPM for 5 min • Resuspend the pellet in RPMI 10% FBS (volume depends on the pellet size and on the next step required). • If mucin is present in the specimen: resuspend the pellet in 10 ml of PBS+20 mM DTT and incubate at 4° C. for 30 min to disintegrate the mucin. Wash with RPMI 1500 rpm for 5 min Resuspend the pellet in RPMI 10% FBS. • If the specimen is highly necrotic with presence of debris: Percoll 20% in HBSS, centrifuge at 800×g for 10 min • 4) The cell suspension was then incubated for 20 min at 37° C. in a tissue culture flask to remove macrophages by adherence. • The size and quantity of the flask and the volume used depends on the amount of cells.

[3] = person, tumor of unknown primary, maximum apoptotic response over the concentrations tested
[4] = KU compared per patient, % of 13 patients
[5] = kinetic units of apoptosis, mean over N patient samples (at least 9 per drug)
[6] = kinetic units of apoptosis, median over N patient samples
[7] = KU compared per patient, % of 24 patients
[8] = person, tumor of unknown primary
[9] = KU compared per patient, % of 34 patients

Compound | Max Resp. (KU) [1, 3] [KU] | KU Mean [2, 5] [KU] | KU Median [2, 6] [KU] | further results
O=c1[nH]cc(F)c(=O)[nH]1 [5FU, 5-fluorouracil] | 0.3 | 0.7 | 0.6 | 5fu > Xeloda + 0.57 [2, 4]: 2/13 (15%)
Nc1nc2[nH]cc(CCc3ccc(C(=O)N[C@@H](CCC(=O)O)C(=O)O)cc3)c2c(=O)[nH]1 [Alimta, pemetrexed] | 0.6 | – | – | –
O=NN(CCCl)C(=O)NC1CCCCC1 [CCNU] | 0.8 | – | – | –
N.N.O=C([O-])C1(C(=O)[O-])CCC1.[Pt+2] [Carbo, Carboplatin] | 6.0 | 1.6 | 1.6 | Carbo = Cisplatin +/− 0.57 and both > 1 [2, 7]: (17%); Carbo > Cisplatin by more than 0.57 and Carbo > 1 [2, 7]: (8%); Cisplatin and Carbo both < 1 [2, 7]: (17%); % >1 [2]: 67%; % >3 [2]: 13%
N.N.[Cl][Pt][Cl] [Cisplatin] | – | 2.2 | 2.3 | efficacy for this patient, in words [1, 8]: single drug with the most efficacy; Cisplatin > Carbo + 0.57 [2, 7]: (58%); Mean Difference (95% CI) of KU vs Carbo ([2]; patient pairwise comparison): 0.88 KU; Mean Difference (95% CI) of KU vs Carbo ([2]; patient pairwise comparison, listed as cisplatin): APOP>carboplatin; Mean Difference (95% CI) of KU vs Oxali ([2]; patient pairwise comparison, drug minus Oxali): 0.33 KU; % >1 [2]: 78%; % >3 [2]: 22%
O=P1(N(CCCl)CCCl)NCCCO1 (stereo not shown) [Cytoxan, cyclophosphamide] | 8.4 | – | – | efficacy for this patient, in words [1, 8]: highly effective results; Cytox = Ifosf +/− 0.57 and both > 1 [2]: (55%); Cytox > Ifosf by more than 0.57 and Cytox > 1 [2]: (18%); Cytox and Ifosf both < 1 [2]: (27%); KU Mean [2]: 2.8 KU; KU Median [2]: 2.6 KU; Mean Difference (95% CI) of KU vs Ifosphamide [2]: 0.34 (−0.07 to 0.76) KU
CN(C)/N=N/c1[nH]cnc1C(N)=O [Dacarbazine] | 0.6 | – | – | –
Cc1c2oc3c(C)ccc(C(=O)N[C@@H]4C(=O)N[C@H](C(C)C)C(=O)N5CCC[C@H]5C(=O)N(C)CC(=O)N(C)[C@@H](C(C)C)C(=O)O[C@@H]4C)c3nc-2c(C(=O)N[C@@H]2C(=O)N[C@H](C(C)C)C(=O)N3CCC[C@H]3C(=O)N(C)CC(=O)N(C)[C@@H](C(C)C)C(=O)O[C@@H]2C)c(N)c1=O [Dactinomycin] (I: T[dV]P[Sar][NMeV] / II: T[dV]P[Sar][NMeV]; ester I:1-I:C, II:1-II:C; linker I:N-II:N via Actinocin(9to1)) | 4.0 | – | – | –
COc1cccc2c1C(=O)c1c(O)c3c(c(O)c1C2=O)C[C@@](O)(C(C)=O)C[C@@H]3O[C@H]1C[C@H](N)[C@H](O)[C@H](C)O1 [Danorubicin, Daunorubicin] | 3.1 | – | – | –
COc1cccc2c1C(=O)c1c(O)c3c(c(O)c1C2=O)C[C@@](O)(C(=O)CO)C[C@@H]3O[C@H]1C[C@H](N)[C@H](O)[C@H](C)O1 [Doxo, doxorubicin] | 3.5 | 1.9 | 1.6 | Doxo > Doxil + 0.57 ([2]; KU compared per patient, % of 9 patients): 4/9 (44%); Doxo > Epi + 0.57 [2, 9]: 3/34 (9%); Mean Difference (95% CI) of KU vs Doxil ([2]; patient pairwise comparison, drug minus Doxil): 0.56 (−0.07 to 1.18) KU; Mean Difference (95% CI) of KU vs Mitox ([2]; patient pairwise comparison): 0.63 KU
COc1cccc2c1C(=O)c1c(O)c3c(c(O)c1C2=O)C[C@@](O)(C(=O)CO)C[C@@H]3O[C@H]1C[C@H](N)[C@@H](O)[C@H](C)O1 [Epi, Epirubicin] | 3.8 | 2.5 | 2.1 | Doxo and Epi < 1 [2, 9]: 1/34 (3%); Epi = Doxo +/− 0.57 and both > 1 [2, 9]: 22/34 (65%); Epi > Doxo by more than 0.57 and Epi > 1 [2, 9]: 6/34 (18%); Mean Difference (95% CI) of KU vs Mitox ([2]; patient pairwise comparison): 0.83 KU; Mean Difference (95% CI) of KU vs Doxo ([2]; patient pairwise comparison): 0.37 KU; Mean Difference (95% CI) of KU vs Doxo ([2]; patient pairwise comparison, listed as epirubicin): APOP>doxorubicin
C=C1C[C@@H]2CC[C@@]34C[C@H]5O[C@H]6[C@@H](O3)[C@H]3O[C@H](CC[C@@H]3O[C@H]6[C@H]5O4)CC(=O)C[C@@H]3[C@@H](OC)[C@@H](C[C@H](O)CN)O[C@H]3C[C@H]3O[C@@H](CC[C@@H]1O2)C[C@@H](C)C3=C [Eribulin, eribulin] | – | 1.0 | 1.0 | –
Cc1ccc(NC(=O)c2ccc(CN3CCN(C)CC3)cc2)cc1Nc1nccc(-c2cccnc2)n1 [Gleevec (imatinib), imatinib] | 1.5 | – | – | –
CCc1c2c(nc3ccc(OC(=O)N4CCC(N5CCCCC5)CC4)cc13)-c1cc3c(c(=O)n1C2)COC(=O)[C@]3(O)CC [Irinotecan] | 2.6 | – | – | –
C/C(=C\c1csc(C)n1)[C@@H]1C[C@@H]2O[C@]2(C)CCC[C@H](C)[C@H](O)[C@@H](C)C(=O)C(C)(C)[C@@H](O)CC(=O)N1 [Ixabepilone, ixabepilone] | – | 1.3 | 1.2 | –
N[C@@H](Cc1ccc(N(CCCl)CCCl)cc1)C(=O)O [Melphalan] | 5.3 | – | – | –
O=C1c2c(O)ccc(O)c2C(=O)c2c(NCCNCCO)ccc(NCCNCCO)c21 [Mitox, mitoxantrone] | – | 1.2 | 1.2 | –
CNNCc1ccc(C(=O)NC(C)C)cc1 [Procarbazine] | 1.3 | – | – | –
CNC(=O)c1cc(Oc2ccc(NC(=O)Nc3ccc(Cl)c(C(F)(F)F)c3)cc2)ccn1 [Sorafenib] | 3.8 | – | – | –
CCN(CC)CCNC(=O)c1c(C)[nH]c(/C=C2\C(=O)Nc3ccc(F)cc32)c1C [Sunifinib, Sunitinib] | 7.9 | – | – | –
C#Cc1cccc(Nc2ncnc3cc(OCCOC)c(OCCOC)cc23)c1 [Tarceva] | 0.7 | – | – | –
Cn1nnc2c(C(N)=O)ncn2c1=O [Temozolomide] | 1.5 | – | – | –
CC(C)C[C@H](NC(=O)[C@H](Cc1ccccc1)NC(=O)c1cnccn1)B(O)O [Velcade] | 3.8 | – | – | –
Nc1ncn([C@@H]2O[C@H](CO)[C@@H](O)[C@H]2O)c(=O)n1 [Vidaza] | 4.3 | – | – | –
CCCCCOC(=O)Nc1nc(=O)n([C@@H]2O[C@H](C)[C@@H](O)[C@H]2O)cc1F [Xeloda, capcitabine] | – | 0.7 | 0.7 | 5fu and Xeloda < 1 [2, 4]: 8/13 (62%); Xeloda = 5fu +/− 0.57 and both > 1 [2, 4]: 0/13 (0%); Xeloda > 5fu by more than 0.57 and Xeloda > 1 [2, 4]: 2/13 (15%); Mean Difference (95% CI) of KU vs 5FU ([2]; patient pairwise comparison, drug minus 5FU): 0.26 (−0.26 to 0.77) KU
Bleomycin | – | – | – | Max Resp. (KU) [1]: 1.1 KU
